Data reported in patent US12622890B2, “Use of the active compound in the prevention or treatment of ovarian dysfunction diseases” (INSTITUTE OF BIOPHYSICS, CHINESE ACADEMY OF SCIENCES, priority 2022, dated 2026).

Legend:
Type in all cases: in vivo
[1] = Body weight of POI model mice before modeling, after modeling and after treatment; conditions: for Body weight before modeling: D 0, 100 mg/kg/d oral; for Body weight after modeling: D 7, 100 mg/kg/d oral; for Body weight after treatment: D 13, 100 mg/kg/d oral
Protocol: Animal model establishment: A total of 34 C57 female mice (8-week-old) were selected and intraperitoneally injected with the ratio of 120 mg/kg cyclophosphamide (SIGMA) and 30 mg/kg Busulfan (Aladdin) once a day for 1 week at the dose of 0.1 mL/10 g to establish the model of POI.
Grouping: 34 POI model mice were randomly divided into four groups: sodium fumarate (SF) treatment group (n=9), hyodeoxycholic acid (HDCA) treatment group (n=8), sodium fumarate plus hyodeoxycholic acid (mass ratio 1:1) combination (SF+HDCA) treatment group (n=8) and normal saline (Vehicle) group (n=9). Mice in the SF group were given oral administration of SF at the ratio of 100 mg/kg/d body weight, mice in the HDCA group were given oral administration of HDCA at the ratio of 100 mg/kg/d body weight, and mice in the combination group were given oral administration of SF and HDCA at the ratio of 100 mg/kg/d body weight. SF and HDCA were dissolved with 0.9% normal saline when used. Mice in the vehicle group were given the same amount of normal saline orally. All the mice were treated consecutively for 12 days.
Body weight were recorded at three time points, before modeling (at the beginning of treatment), after modeling and after treatment.
Animal model establishment: A total of 24 C57 mice (8-week-old) were selected and intraperitoneally injected with the ratio of 120 mg/kg cyclophosphamide and 30 mg/kg Busulfan once a day for 1 week at the dose of 0.1 mL/10 g to establish the model of POI.
Grouping: 24 POI model mice were randomly divided into four groups: dimethyl fumarate (DMF) treatment group (n=5), hyodeoxycholic acid (HDCA) treatment group (n=6), dimethyl fumarate plus hyodeoxycholic acid (mass ratio=1:1) combination (DMF+HDCA) treatment group (n=7) and normal saline (Vehicle) group (n=6). Mice in the DMF treatment group were orally administrated at the ratio of 100 mg/kg/d body weight. Mice in the HDCA treatment group were given oral administration of HDCA at the ratio of 100 mg/kg/d body weight, and mice in the combination group were given oral administration of DMF and HDCA at the ratio of 100 mg/kg/d body weight. Once daily, DMF and HDCA were dissolved in 0.9% normal saline when used. Mice in normal saline group were given the same amount of normal saline orally every day. The drug was administered for 12 days.
Body weight were recorded at three time points, before modeling (at the beginning of treatment, the 0th day), after modeling (the 7th day) and after treatment (the 13th day).
The body weight of POI model mice of each group was measured before modeling, after modeling and after treatment.

POI mice [2] = assay: Serum superoxide dismutase (SOD) level, oxidative stress
From the text: (§1) Biomarkers mentioned herein, such as follicle stimulating hormone (FSH), estrogen (e.g., E2), and superoxide dismutase (SOD), malondialdehyde (MDA), relative reactive oxygen species (ROS), and lactate dehydrogenase (LDH), etc., can be detected using methods commonly known in the field. Detection methods typically cover methods that quantify the level of a biomarker in a sample (quantitative methods). Which of the following methods are suitable for qualitative and/or quantitative detection of biomarkers is generally known to those skilled in the field. Samples can be conveniently measured, for example for proteins using immunoassays such as ELISA, RIA, etc., which are commercially available.
(§2) After 12 days of administration, half of the mice in each group were sacrificed, and their blood was collected and kept still. The serum was separated after centrifugation at 4500 rpm and stored in a refrigerator at −80° C. for future use to measure levels of follicle stimulating hormone, estrogen, and the indexes of oxidative stress such as superoxide dismutase (SOD) and malondial dehyde (MDA).
as §2, with “kept in” for “kept”, “levals” for “levels”, “malondialdehyde” for “malondial dehyde”
(§3) The oxidative stress hypothesis believes that the reduction of antioxidant components in the body leads to the weakening of the ability to remove free radicals, which leads to oxidative damage of biological macromolecules, and the imbalance of cellular oxidative and antioxidant functions, which leads to oxidative stress, and then leads to disease and aging. Oxygen free radicals act on unsaturated fatty acids of lipids to generate lipid peroxides, including malondialdehyde (MDA) and so on. The antioxidant defense system of scavenging free radicals includes superoxide dismutase (SOD) and so on. Recently, oxidative stress has been reported to be associated with ovarian aging and POI in primates. Therefore, this embodiment examined the effects of DMF, HDCA, and DMF+HDCA on oxidative stress in mice with premature ovarian failure, and the results are shown in Table 5, FIGS. 9 to 12.

POI mice [3] = assay: Serum FSH level in POI mice; conditions: for FSH: serum, after 12 days 100 mg/kg/d oral
From the text: as §1, §2
as §2, with “kept in” for “kept”, “levals” for “levels”, “malondialdehyde” for “malondial dehyde”
• 1. Hormone levels in mice blood of Example 1 are measured in this embodiment.

POI mice [4] = assay: Serum lactate dehydrogenase (LDH) level
From the text: as §1

POI mice [5] = assay: Serum estradiol (E2) level in POI mice; conditions: for E2: serum, after 12 days 100 mg/kg/d oral
From the text: as §1, §2
as §2, with “kept in” for “kept”, “levals” for “levels”, “malondialdehyde” for “malondial dehyde”

POI mice [6] = assay: Serum relative reactive oxygen species (ROS) level
From the text: as §1, §3

[7] = serum, POI mice after treatment
[8] = Example 2, FIG. 8, not statistically significant

C[C@H](CCC(=O)O)[C@H]1CC[C@H]2[C@@H]3C[C@H](O)[C@@H]4C[C@H](O)CC[C@]4(C)[C@H]3CC[C@]12C [HDCA, hyodeoxycholic acid, reference compound]
Body weight before modeling ([1]; Example 1 POI mice): 18.79 ± 0.80 g
Body weight after modeling ([1]; Example 1 POI mice): 17.69 ± 1.03 g
Body weight after treatment ([1]; Example 1 POI mice): 17.96 ± 1.20 g
Weight recovery after chemotherapy ([1]; Example 1 POI mice, FIG. 2A): significantly beneficial
Body weight before modeling ([1]; Example 2 POI mice): 18.32 ± 1.61 g
Body weight after modeling ([1]; Example 2 POI mice): 16.31 ± 2.02 g
Body weight after treatment ([1]; Example 2 POI mice): 17.10 ± 2.24 g
Weight recovery after chemotherapy ([1]; Example 2 POI mice, FIG. 2B): significantly beneficial
Activity of SOD compared with the normal saline group (POI mice [2]; FIG. 9, difference not significant): increased
SOD (POI mice [2]; [7]): 14.59 ± 5.65 U/mL
Serum FSH level compared with the normal saline group (POI mice [3]; Example 1, FIG. 6): decreasing trend
Serum FSH level compared with the normal saline group (POI mice [3]; [8]): certain decreasing trend
FSH (POI mice [3]; Example 1 POI mice): 4.85 ± 2.34 mIU/mL
FSH (POI mice [3]; Example 2 POI mice): 1.65 ± 0.76 mIU/mL
Activity of LDH compared with the normal saline group (POI mice [4]; FIG. 12): reduced to some extent
LDH (POI mice [4]; [7]): 2821.58 ± 318.30 U/mL
Serum E2 level compared with the normal saline group (POI mice [5]; Example 1, FIG. 7): tendency to increase
Serum E2 level compared with the normal saline group (POI mice [5]; [8]): certain tendency to decrease
E2 (POI mice [5]; Example 1 POI mice): 49.69 ± 7.11 pg/mL
E2 (POI mice [5]; Example 2 POI mice): 42.96 ± 14.28 pg/mL
ROS levels compared with the normal saline group (POI mice [6]; FIG. 11): significantly reduced
ROS (POI mice [6]; relative ROS level in serum, POI mice after treatment): 4.589 ± 0.599
